{"source": "paper PMC4877593", "about": "“Design and Synthesis of Potent in Vitro and in Vivo Anticancer Agents Based on 1-(3′,4′,5′-Trimethoxyphenyl)-2-Aryl-1H-Imidazole” (Scientific Reports, 2016)", "key": {"HeLa cells": {"system": "HeLa cells", "test": "Cell cycle distribution by flow cytometry (PI), HeLa", "format": "cell-based, human", "experimental": "The effects of a 24 h treatment with different concentrations of 4o on cell cycle progression in Jurkat, and HeLa cells were determined by flow cytometry, following propidium iodide (PI) staining of the cells (Fig. 4, Panels A,B). […] In the HeLa cells, the G2/M block was accompanied by a significant reduction of both G1 and S phase cells. In order to determine whether 4o was able to block cells at the mitotic phase (M), cells were stained with an immunofluorescent antibody to p-histone H3, a well known mitotic marker, as well as PI, and analyzed by flow cytometry. As shown in Fig. 4 (Panel C), in which representative histograms are presented, Hela cells arrested in M phase by treatment with 4o are readily distinguished from G2 cells by the higher level of p-histone H3. In particular, treatment with 4o induced an increase in the percentage of mitotic cells from the 2% observed in untreated cells to about 30% with both 50 and 100 nM 4o at 24 h (Fig. 4, Panel D).\n5 × 10^5 HeLa or Jurkat cells were treated with different concentrations of the test compounds for 24 h. After the incubation period, the cells were collected, centrifuged, and fixed with ice-cold ethanol (70%). […] Samples were analyzed on a Cytomic FC500 flow cytometer (Beckman Coulter). DNA histograms were analyzed using MultiCycle for Windows (Phoenix Flow Systems)."}, "HL-60": {"system": "HL-60", "test": "In vitro antiproliferative activity (MTT), HL-60", "format": "cell-based", "conditions": "Homo sapiens, tumor cell proliferation, 72 h, mean ± SE"}, "A549": {"system": "A549", "test": "In vitro antiproliferative activity (MTT), A549", "format": "cell-based", "conditions": "Homo sapiens, tumor cell proliferation, 72 h, mean ± SE", "experimental": "(§1) Human T-cell leukemia (CCRF-CEM and Jurkat) and human B-cell leukemia (SEM) cells were grown in RPMI-1640 medium (Gibco, Milano, Italy). Breast adenocarcinoma (MCF7), human cervix carcinoma (HeLa), and human colon adenocarcinoma (HT-29) cells were grown in DMEM medium (Gibco, Milano, Italy), all supplemented with 115 units/mL penicillin G (Gibco, Milano, Italy), 115 μg/mL streptomycin (Invitrogen, Milano, Italy), and 10% fetal bovine serum (Invitrogen, Milano, Italy). Stock solutions (10 mM) of the different compounds were obtained by dissolving them in dimethyl sulfoxide (DMSO). Individual wells of a 96-well tissue culture microtiter plate were inoculated with 100 μL of complete medium containing 8 × 10^3 cells. The plates were incubated at 37 °C in a humidified 5% CO2 incubator for 18 h prior to the experiments. After medium removal, 100 μL of fresh medium containing the test compound at different concentrations was added to each well in triplicate and incubated at 37 °C for 72 h. The percentage of DMSO in the medium never exceeded 0.25%. This was also the maximum DMSO concentration in all cell-based assays described below. […] Different concentrations of the test compounds were added, and viability was determined 72 h later by the MTT test. For cytotoxicity evaluations in resting PBL cultures, non-adherent cells were resuspended (5 × 10^5 cells/mL) and treated for 72 h with the test compounds, as described above."}, "HeLa": {"system": "HeLa", "test": "Mitochondrial membrane potential (JC-1), HeLa", "format": "cell-based, human", "conditions": "HeLa, 50, 100 and 250 nM; time- and concentration-dependent", "experimental": "Mitochondria play an essential role in the propagation of apoptosis. It is well established that, at an early stage, apoptotic stimuli alter the mitochondrial transmembrane potential (Δψmt). Δψmt was monitored by the fluorescence of the dye JC-1. […] This occurred in a time- and concentration-dependent fashion, and, in both cell lines, a significant increase was observed after a 6 h treatment. The disruption of Δψmt is associated with the appearance of annexin-V positivity in the treated cells when they are in an early apoptotic stage. […] Cells were treated with the indicated concentration of compound for 24 or 48 h and then stained with the fluorescent probe JC-1 for analysis of mitochondrial potential or H2-DCFDA for the evaluation of ROS levels. Cells were then analyzed by flow cytometry as described in the experimental section."}, "MCF-7": {"system": "MCF-7", "test": "In vitro antiproliferative activity (MTT), MCF-7", "format": "cell-based", "conditions": "Homo sapiens, MCF7, tumor cell proliferation, 72 h, mean ± SE", "experimental": "as §1"}, "Jurkat": {"system": "Jurkat", "test": "ROS production (H2-DCFDA), Jurkat", "format": "cell-based, human", "conditions": "in comparison with control cells", "experimental": "Figure 7 Assessment of mitochondrial membrane potential (Δψmt) and production of ROS after treatment of HeLa (Panels A,B) or Jurkat (Panels C,D) cells with compound 4o. Cells were treated with the indicated concentration of compound for 24 or 48 h and then stained with the fluorescent probe JC-1 for analysis of mitochondrial potential or H2-DCFDA for the evaluation of ROS levels. Cells were then analyzed by flow cytometry as described in the experimental section.\nIt is also well known that dissipation of mitochondrial potential is associated with mitochondrial production of ROS[38]. Superoxide anion is produced by mitochondria due to a shift from the normal 4-electron reduction of O2 to a 1-electron reduction when cytochrome c is released from mitochondria upon apoptosis. Therefore, we investigated whether ROS production increased after treatment with compound 4o. We utilized the dye 2,7-dichlorodihydrofluorescein diacetate (H2-DCFDA), which is oxidized to the fluorescent compound dichlorofluorescein (DCF) upon ROS induction."}}, "data": [{"smiles": "CCOc1ccc(-c2nccn2-c2cc(OC)c(OC)c(OC)c2)cc1Cl", "note": "[Compound 4o, 2-(3′-Chloro-4′-ethoxyphenyl)-1-(3′,4′,5′-trimethoxyphenyl)-1H-imidazole]", "values": [{"measurement": "lowest concentration with a rise in G2/M cells", "setting": "HeLa cells; 24 h treatment", "result": 25, "unit": "nM"}, {"measurement": "cells arrested in G2/M", "setting": "HeLa cells; highest concentration, 24 h", "result": "more than 80%"}, {"measurement": "IC50", "setting": "HL-60", "result": "1.8 ± 0.6", "unit": "nM"}, {"measurement": "IC50", "setting": "A549", "result": "0.57 ± 0.17", "unit": "nM"}, {"measurement": "percentage of cells with low Δψmt (JC-1)", "setting": "HeLa", "result": "remarkable increase"}, {"measurement": "IC50", "setting": "MCF-7", "result": "0.7 ± 0.06", "unit": "nM"}, {"measurement": "ROS production (H2-DCFDA)", "setting": "Jurkat", "result": "induced the production of large amounts of ROS"}]}]}
